# Patent US20050209343A1, “Percutaneous absorption promoters and compositions for treating athlete's foot” (priority 2002, published 2005)
# Key:
# [1] = everyday administration, 1200 mg/kg/day for 52 weeks (Williams et al. 1999); cited from earlier work
# [2] = Skin irritation test (Draize method); format: in vivo, JW rabbits
# Method: A skin irritation test was carried out using JW rabbits (17 to 18 weeks old). The backs of three rabbits were dehaired by an electric hair clipper, and four divisions of administration parts of 2.5×2.5 cm square were set on each rabbit back. 0.5 g of each specimen, i.e. oxidized coenzyme Q10 and reduced coenzyme Q10 (containing 2% of oxidized coenzyme Q10) was administered on the administration parts, and the parts were covered with gauzes for specimen's fixation. After the lapse of 4 hours, the specimens were removed. Further after the lapse of 1 hour, 24 hours, 48 hours, and 72 hours, formation of erythema, crusta and dropsy was determined by the method according to Draize J. H. et al. (Exp. Ther., 82, 377-390, 1944). That is, observations were made in view of formations of erythema, crusta and dropsy, they were scored for calculation of the primary irritation indexes, and the skin irritations were evaluated based on said primary irritation indexes. As a result, all scores were 0 (i.e. no erythema, crusta or dropsy) in observation items of oxidized coenzyme Q10 and reduced coenzyme Q10.
# [3] = Percutaneous absorbability test: amount of antifungal agent in skin after ointment administration; settings: for Amount of antifungal agent in skin relative to antifungal agent alone (100), value in parentheses: same test, 2 hours after administration, *p<0.05, **p<0.01 Student t-test
# Method: Using clotrimazole, bifonazole, and econazole as antifungal agents, the percutaneous absorption promoting effects of reduced coenzyme Q10 and oxidized coenzyme Q10 to these antifungal agents were evaluated. The antifungal agents were separately dissolved in ethanol, mixed with heat-melted polyethylene glycol 1000 (PEG 1000) so as to have the final concentration of 1%, and prepared into ointments by allowing them to stand at room temperature. Each of heat-melted reduced coenzyme Q10 and oxidized coenzyme Q10 was mixed with the above-mentioned heat-melted PEG 1000 ointment containing each antifungal agent to prepare mixed ointments in which each of the final concentrations of coenzyme Q10s and antifungal agent is 1%.
# A percutaneous absorbability test was carried out using fully fed male hairless rats (weight: 350 to 400 g). The hairless rats were mildly anesthetized with ether, and three administration parts of 3 cm square were set on the backs of each rat. To each part, 0.1 g of each ointment, i.e. the ointment containing an antifungal agent alone, the ointment containing an antifungal agent and reduced coenzyme Q10, and the ointment containing an antifungal agent and oxidized coenzyme Q10 was administered. After the lapse of 2 hours from the administration, the rat was euthanized, the administration parts were thoroughly washed, and skin was collected. The clotrimazole amounts in skin were determined by the sequential treatment subjecting the skin to homogenization, acetone extraction, concentration using a solid phase column, and high performance liquid chromatography. Each amount of bifonazole and econazole in the skin was determined by the sequential treatment subjecting the skin to homogenization, methanol extraction, and high performance liquid chromatography.
# The values are the average value ±standard deviation (n=3).
smiles,measurement,setting,value
COC1=C(OC)C(=O)C(C/C=C(\C)CC/C=C(\C)CC/C=C(\C)CC/C=C(\C)CC/C=C(\C)CC/C=C(\C)CC/C=C(\C)CC/C=C(\C)CC/C=C(\C)CCC=C(C)C)=C(C)C1=O [coenzyme Q10],Toxic influence in chronic toxicity test,[1],completely no toxic influence had been observed
COC1=C(OC)C(=O)C(C/C=C(\C)CC/C=C(\C)CC/C=C(\C)CC/C=C(\C)CC/C=C(\C)CC/C=C(\C)CC/C=C(\C)CC/C=C(\C)CC/C=C(\C)CCC=C(C)C)=C(C)C1=O [oxidized coenzyme Q10],"Scores for erythema, crusta and dropsy (Draize)","[2]; rabbit, in vivo",0
same,Skin irritation (based on primary irritation index),"[2]; rabbit, in vivo",no skin irritation was observed
same,Increase of antifungal agent amount in skin,"[3]; rat, in vivo",20-40%
"c1ccc(-c2ccc(C(c3ccccc3)n3ccnc3)cc2)cc1 (stereo not drawn) [Bifonazole, bifonazole]","Amount of antifungal agent in skin relative to antifungal agent alone (100), value in parentheses",[3],(100)
COc1c(O)c(C)c(C/C=C(\C)CC/C=C(\C)CC/C=C(\C)CC/C=C(\C)CC/C=C(\C)CC/C=C(\C)CC/C=C(\C)CC/C=C(\C)CC/C=C(\C)CCC=C(C)C)c(O)c1OC [reduced coenzyme Q10],"Scores for erythema, crusta and dropsy (Draize)","[2]; 0.5 g on 2.5×2.5 cm dehaired back skin for 4 hours, observed 1, 24, 48 and 72 hours after removal, three rabbits",0
same,Skin irritation (based on primary irritation index),"[2]; 0.5 g on dehaired back skin for 4 hours, observed up to 72 hours after removal",no skin irritation was observed
"Clc1ccc(COC(Cn2ccnc2)c2ccc(Cl)cc2Cl)cc1 (stereo not drawn) [Econazole, econazole]","Amount of antifungal agent in skin relative to antifungal agent alone (100), value in parentheses",[3],(100)
"Clc1ccccc1C(c1ccccc1)(c1ccccc1)n1ccnc1 [Clotrimazole, clotrimazole]","Amount of antifungal agent in skin relative to antifungal agent alone (100), value in parentheses",[3],(100)
